Experimental data from US7728028B2, “Substituted imidazoline compounds” (Gruenenthal GmbH, priority 2005, dated 2010).

Each compound was assayed against T1, human μ-opiate receptor (Homo sapiens, UniProt P35372) (assay: Affinity for the human μ-opiate receptor ([3H]-naloxone displacement, SPA)). Conditions: Table 1, aldehydes; test substance 1 μmole/l; inhibition of specific [3H]-naloxone binding; CHO-K1 membranes; read-out: μ-Opioid receptor, % inhibition [1 μM].
T1 construct: purchased PerkinElmer Life Sciences, Zaventem, Belgium RB-HOM; host or cells: CHO-K1 cells (recombinant expression; membrane preparation)
T1 sequence (P35372 whole entry): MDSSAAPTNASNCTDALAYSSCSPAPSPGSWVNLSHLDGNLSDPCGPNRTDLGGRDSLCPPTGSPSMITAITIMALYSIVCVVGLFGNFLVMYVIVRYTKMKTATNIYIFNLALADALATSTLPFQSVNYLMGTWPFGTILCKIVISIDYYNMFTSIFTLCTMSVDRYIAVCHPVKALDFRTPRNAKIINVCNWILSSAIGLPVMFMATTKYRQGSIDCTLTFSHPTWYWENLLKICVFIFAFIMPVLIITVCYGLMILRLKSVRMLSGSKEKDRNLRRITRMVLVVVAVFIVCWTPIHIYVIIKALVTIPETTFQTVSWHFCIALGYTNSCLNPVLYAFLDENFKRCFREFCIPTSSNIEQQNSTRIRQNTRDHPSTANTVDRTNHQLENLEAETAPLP
Method in brief: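 CHO-K1 membranes expressing the receptor, incubated 90 min at room temperature with 1 nmol/l [3H]-naloxone and WGA-SPA beads in 50 mmol/l Tris-HCl with 0.06% BSA. Non-specific binding defined with 100 μmol/l naloxone. Value is % inhibition of specific binding at 1 μmol/l test substance.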
CN(C)C(c1ccc(Cl)cc1)C1CCC(CC=O)CC1 (centres unmarked) [Example 10c, {4-[(4-Chlorophenyl)-dimethylaminomethyl]-cyclohexyl}-acetaldehyde] was tested, and the inhibition at 1 µM was 50%.

Same assay, conditions: Table 2, Examples 11-161; test substance 1 μmole/l; inhibition of specific [3H]-naloxone binding; CHO-K1 membranes; read-out: μ-Opioid receptor, % inhibition [1 μM]
CCCCC1(C(=O)OC)N=CN(Cc2ccccc2)C1CC1CCC(C(c2ccc(Cl)cc2)N(C)C)CC1 (centres unmarked) [Example 114, 1-benzyl-4-butyl-5-{4-[(4-chlorophenyl)-dimethylaminomethyl]-cyclohexylmethyl}-4,5-dihydro-1H-imidazole-4-carboxylic acid methyl ester] gave an inhibition at 1 µM of 86%.
COC(=O)C1(CSCc2ccccc2)N=CN(CCc2ccccc2)C1C1CCC(C(c2ccc(Cl)cc2)N(C)C)CC1 (centres unmarked) [Example 93, 4-benzylsulfanylmethyl-5-{4-[(4-chlorophenyl)-dimethylaminomethyl]-cyclohexyl}-1-phenethyl-4,5-dihydro-1H-imidazole-4-carboxylic acid methyl ester] showed an inhibition at 1 µM of 92%.
COC(=O)C1(CCSC)N=CN(C2CCCCC2)C1CC1CCC(C(c2ccc(F)cc2)N(C)C)CC1 (centres unmarked) [Example 106, 1-cyclohexyl-5-{4-[dimethylamino-(4-fluorophenyl)-methyl]-cyclohexylmethyl}-4-(2-methylsulfanyl-ethyl)-4,5-dihydro-1H-imidazole-4-carboxylic acid methyl ester] showed an inhibition at 1 µM of 92%.
COC(=O)CCC1(C(=O)OC)N=CN(Cc2ccccc2)C1CC1CCC(C(c2ccc(F)cc2)N(C)C)CC1 (centres unmarked) [Example 87, 1-benzyl-5-{4-[dimethylamino-(4-fluorophenyl)-methyl]-cyclohexylmethyl}-4-(2-methoxycarbonylethyl)-4,5-dihydro-1H-imidazole-4-carboxylic acid methyl ester] was tested, and the inhibition at 1 µM was 95%.
COC(=O)CCC1(C(=O)OC)N=CN(C2CCCCC2)C1CC1CCC(C(c2ccc(Cl)cc2)N(C)C)CC1 (centres unmarked) [Example 53, 5-{4-[(4-chlorophenyl)-dimethylaminomethyl]-cyclohexylmethyl}-1-cyclohexyl-4-(2-methoxycarbonylethyl)-4,5-dihydro-1H-imidazole-4-carboxylic acid methyl ester] gave an inhibition at 1 µM of 96%.
COC(=O)C1(CC(C)C)N=CN(CCc2ccccc2)C1CC1CCC(C(c2ccc(Cl)cc2)N(C)C)CC1 (centres unmarked) [Example 43, 5-{4-[(4-chlorophenyl)-dimethylaminomethyl]-cyclohexylmethy}-4-isobutyl-1-phenethyl-4,5-dihydro-1H-imidazole-4-carboxylic acid methyl ester] showed an inhibition at 1 µM of 97%.
COC(=O)C1(CSCc2ccccc2)N=CN(Cc2ccccc2)C1C1CCC(C(c2cccc(F)c2)N(C)C)CC1 (centres unmarked) [Example 97, 1-benzyl-4-benzylsulfanylmethyl-5-{4-[dimethylamino-(3-fluorophenyl)-methyl]-cyclohexyl}-4,5-dihydro-1H-imidazole-4-carboxylic acid methyl ester] gave an inhibition at 1 µM of 97%.
With CCCCN1C=NC(CC(C)C)(C(=O)OC)C1C1CCC(C(c2ccc(Cl)cc2)N(C)C)CC1 (centres unmarked) [Example 31, 1-butyl-5-{4-[(4-chlorophenyl)-dimethylaminomethyl]-cyclohexyl}-4-isobutyl-4,5-dihydro-1H-imidazole-4-carboxylic acid methyl ester] the inhibition at 1 µM was 91%.
For COC(=O)C1(C)N=CN(C2CCCCC2)C1CC1CCC(C(CCc2ccccc2)N(C)C)CC1 (centres unmarked) [Example 110, 1-cyclohexyl-5-[4-(1-dimethylamino-3-phenylpropyl)-cyclohexylmethyl]-4-methyl-4,5-dihydro-1H-imidazole-4-carboxylic acid methyl ester], the inhibition at 1 µM was 67%.
With COC(=O)CCC1(C(=O)OC)N=CN(C2CCCCC2)C1C1CCC(C(c2ccc(Cl)cc2)N(C)C)CC1 (centres unmarked) [Example 51, 5-{4-[(4-chlorophenyl)-dimethylaminomethyl]-cyclohexyl}-1-cyclohexyl-4-(2-methoxycarbonylethyl)-4,5-dihydro-1H-imidazole-4-carboxylic acid methyl ester] the inhibition at 1 µM was 96%.
Compound CCCCC1(C(=O)OC)N=CN(CCc2ccccc2)C1CC1CCC(C(c2ccc(Cl)cc2)N(C)C)CC1 (centres unmarked) [Example 45, 4-butyl-5-{4-[(4-chlorophenyl)-dimethylaminomethyl]-cyclohexylmethyl}-1-phenethyl-4,5-dihydro-1H-imidazole-4-carboxylic acid methyl ester] has an inhibition at 1 µM of 97%.
In the case of COC(=O)C1(CSCc2ccccc2)N=CN(Cc2ccccc2)C1CC1CCC(C(c2cccc(F)c2)N(C)C)CC1 (centres unmarked) [Example 86, 1-benzyl-4-benzylsulfanylmethyl-5-{4-[dimethylamino-(3-fluorophenyl)-methyl]-cyclohexylmethyl}-4,5-dihydro-1H-imidazole-4-carboxylic acid methyl ester], the inhibition at 1 µM was 71%.
With CCCN1C=NC(CCC)(C(=O)OC)C1CC1CCC(C(c2ccc(F)cc2)N(C)C)CC1 (centres unmarked) [Example 118, 5-{4-[dimethylamino-(4-fluorophenyl)-methyl]-cyclohexylmethyl}-1,4-dipropyl-4,5-dihydro-1H-imidazole-4-carboxylic acid methyl ester] the inhibition at 1 µM was 87%.
Compound COC(=O)C1(CCSC)N=CN(CCc2ccccc2)C1CC1CCC(C(c2cccc(F)c2)N(C)C)CC1 (centres unmarked) [Example 130, 5-{4-[dimethylamino-(3-fluorophenyl)-methyl]-cyclohexylmethyl}-4-(2-methylsulfanylethyl)-1-phenethyl-4,5-dihydro-1H-imidazole-4-carboxylic acid methyl ester] has an inhibition at 1 µM of 97%.
CCCCN1C=NC(CSC)(C(=O)OC)C1CC1CCC(C(c2ccc(Cl)cc2)N(C)C)CC1 (centres unmarked) [Example 89, 1-butyl-5-{4-[(4-chlorophenyl)-dimethylaminomethyl]-cyclohexylmethyl}-4-methylsulfanylmethyl-4,5-dihydro-1H-imidazole-4-carboxylic acid methyl ester] gave an inhibition at 1 µM of 96%.
COC(=O)CCC1(C(=O)OC)N=CN(C2CCCCC2)C1CC1CCC(C(c2ccc(F)cc2)N(C)C)CC1 (centres unmarked) [Example 151, 1-cyclohexyl-5-{4-[dimethylamino-(4-fluorophenyl)-methyl]-cyclohexylmethyl}-4-(2-methoxycarbonylethyl)-4,5-dihydro-1H-imidazole-4-carboxylic acid methyl ester] showed an inhibition at 1 µM of 95%.
Compound CCCCN1C=NC(CC(C)C)(C(=O)OC)C1CC1CCC(C(c2ccc(Cl)cc2)N(C)C)CC1 (centres unmarked) [Example 34, 1-butyl-5-{4-[(4-chlorophenyl)-dimethylaminomethyl]-cyclohexylmethyl}-4-isobutyl-4,5-dihydro-1H-imidazole-4-carboxylic acid methyl ester] has an inhibition at 1 µM of 98%.
Work on CCCC1(C(=O)OC)N=CN(CCc2ccccc2)C1CC1CCC(C(c2cccc(F)c2)N(C)C)CC1 (centres unmarked) [Example 129, 5-{4-[dimethylamino-(3-fluorophenyl)-methyl]-cyclohexylmethyl}-1-phenethyl-4-propyl-4,5-dihydro-1H-imidazole-4-carboxylic acid methyl ester] yielded an inhibition at 1 µM of 93%.
COC(=O)C1(CC(C)C)N=CN(Cc2ccccc2)C1C1CCC(C(c2ccc(Cl)cc2)N(C)C)CC1 (centres unmarked) [Example 48, 1-benzyl-5-{4-[(4-chlorophenyl)-dimethylaminomethyl]-cyclohexyl}-4-isobutyl-4,5-dihydro-1H-imidazole-4-carboxylic acid methyl ester] was tested, and the inhibition at 1 µM was 93%.
